This data set relates to EGFR inhibitor resistant NSCLC cell line NCI-H1975. Description: in vivo antitumor activity against s.c. NCI-H1975 tumors in athymic mice. The protocol:
Female Harlan athymic mice (n=6), bearing s.c NCI-H1975 tumors are treated p.o. with the PI3K inhibitor Compound A at 50 mg/kg every day for the duration of the treatment. * p<0.05 (Dunnet's vs controls).
Non small cell lung carcinoma cell lines with EGFR mutant forms, but refractory to EGFR inhibition therapy, are valuable models to test the sensitivity of PI3K inhibitors like the compounds of formula I in such genetic background. The NCI-H1975 cell line is such a model as is highly tumorigenic in vivo. Moreover, it contains HER1 bearing the T790M gatekeeper mutation that renders the kinase resistant to catalytic inhibition by compounds such as gefitinib. The in vivo antitumor activity of PI3K inhibitors like the compounds of formula I is tested against this EGFR driven and EGFR tyrosine kinase inhibitor resistant tumor model (FIG. 1).

For the molecule `Nc1cc(C(F)(F)F)c(-c2cc(N3CCOCC3)nc(N3CCOCC3)n2)cn1` [Compound A, 5-(2,6-di-morpholin-4-yl-pyrimidin-4-yl)-4-trifluoromethyl-pyridin-2-ylamine], for the setting “female Harlan athymic mice, s.c. NCI-H1975 tumors (HER1 T790M), 50 mg/kg p.o. every day, p<0.05 Dunnet's vs controls (FIG. 1)”, the “antitumor activity (tumor growth)” value is “in vivo tumor growth inhibition”. In addition, the “mean body weight, control vs treatment group” value (mice bearing s.c. NCI-H1975 tumors, 50 mg/kg p.o. every day (FIG. 2)) is “no statistically significant difference in body weight”. Also, the tolerability result (mouse, in vivo, 50 mg/kg) is “well tolerated”.
